These results are taken from patent US20160206577A1, “NOVEL DRUG FORMULATION” (FAB PHARMA SAS, priority 2013, published 2016).

Data set [1] has as its system methicillin-susceptible Staphylococcus aureus (MSSA). Put plainly: Systemic mouse infection model against MSSA. Format: in vivo. The following applies: CD-1 mice, combined n=3 studies. On the procedure:
(§1) The aim of this study was to compare the in vivo efficacy of the prior art historical formulation with a novel nanosuspension of the present invention using a murine systemic infection model against both a susceptible (MSSA) and a methicillin resistant (MRSA) strains of S. aureus.
(§2) Three independent studies were run against each isolate (one MSSA and one MRSA), the data for the three studies combined and analysis performed. Bacterial isolates were grown to log phase in a liquid culture. Bacteria were diluted in 8% mucin to a concentration to achieve at least 90% mortality within 48 hours after infection. Six CD-1 female mice, 18-20 grams, were allocated per compound (I) concentration and were infected with 0.5 ml of bacterial suspension via intraperitoneal injection. Five minutes post-infection, mice were treated via intravenous administration. A nanosuspension of the invention (prepared according to Example 3) was prepared fresh just prior to single IV dose delivery at 50, 100 and 200 mg/kg (dosage of compound (I)). The prior art historical formulation of compound (I) (formulated at 10 mg/mL in 20% HPBCD, and 1% glucose) and vancomycin (Sigma Aldrich) were also administered IV at one dose and were used as comparators. Infection control mice were dosed with saline. Survival was assessed for 48 hours post infection. Date of death was recorded and a Probit analysis was performed to determine the PD50 (50% protective dose).

Data set [2] deals with methicillin-resistant Staphylococcus aureus (MRSA 300). Kind of data set: Systemic mouse infection model against MRSA. The following applies: CD-1 mice, combined n=3 studies. In kind it is in vivo. The method, then: as §1, §2
The subject of another data set is MSSA and MRSA infections. Particulars: murine model; cited from earlier work.
For data set [3] the following is noted: cited from earlier work.
A short description of data set [4]: Particle size of suspensions made with concentrated aqueous PVP (solvent evaporation attempts). Format: physicochemical. The following applies: low molecular weight PVP (3,500 Da), concentrated aqueous polymer solution. An excerpt: Alternative solvent evaporation systems such as oil-in-oil and water-in-oil systems were investigated, however large particle sizes were still observed. In an attempt to reduce solvent dissolution into the continuous phase of the oil-in-water system, the aqueous phase was saturated with different salts to reduce solvent solubility. However, little benefit was achieved through the use of the saturated salt systems, as large crystals were still observed. It was thought that the use of a concentrated aqueous polymer solution would disrupt or prevent crystal formation. Multiple molecular weights and concentrations of PVP were studied. […] In the expectation of further reducing the particle size (to <1 μm i.e. to nanoparticulate form) further surfactants were added. However, by contrast, the addition of further surfactants to the solution yielded large size growth of particles.

Data set [5] relates to Staphylococcus aureus MSSA, MRSA, VISA and VRSA strains. Particulars: pathogenic MSSA; cited from earlier work.
For data set [6] the following is noted: commercial intravenous formulations; cited from earlier work.
The mark [7] stands for this setting: single IV dose 50 mg/kg, 48 h post infection.
[8] abbreviates: single IV dose, Probit analysis.

Where only a bound is given, the exact number is not on record here.

With `CN[C@H](CC(C)C)C(=O)N[C@H]1C(=O)N[C@@H](CC(N)=O)C(=O)N[C@H]2C(=O)N[C@H]3C(=O)N[C@H](C(=O)N[C@H](C(=O)O)c4cc(O)cc(O)c4-c4cc3ccc4O)[C@H](O)c3ccc(c(Cl)c3)Oc3cc2cc(c3O[C@@H]2O[C@H](CO)[C@@H](O)[C@H](O)[C@H]2O[C@H]2C[C@](C)(N)[C@H](O)[C@H](C)O2)Oc2ccc(cc2Cl)[C@H]1O` [Vancomycin, vancomycin], in data set [1] (setting [7]), the “% survival” value was found to be 100% and the Survival is recorded as 18/18. Besides, the “PD50 (50% protective dose)” value in data set [1] (setting [8]) is less than 50 mg/kg. In data set [2] (setting [7]), the “% survival” value amounted to 100% and the Survival was 18/18. Further, the “PD50 (95% C.I.)” value in data set [2] (setting [8]) is less than 50 mg/kg.
Consider `CCc1cc(O)c(Oc2ccc(C(N)=O)cc2F)cc1F` [compound (I), 4-(4-ethyl-5-fluoro-2-hydroxyphenoxy)-3-fluorobenzamide], for which the In vivo activity entry in the data set with MSSA and MRSA infections is recorded as “active in vivo”. Further, the Water-solubility entry in data set [3] is given as “relatively poor”. For the same molecule, in data set [3] (prior art historical formulation (water, glucose monohydrate, HPBCD)), the “Concentration at which compound (I) may be formulated” value is reported as “up to 11.3 mg/mL”. The “Particle size of suspension” value in data set [4] is listed as 4.4 μm. In addition, the In vitro activity entry in data set [5] was “highly active”.
Consider `CC(O)COC[C@H]1O[C@@H]2O[C@H]3[C@H](O)[C@@H](O)[C@@H](O[C@H]4[C@H](O)[C@@H](O)[C@@H](O[C@H]5[C@H](O)[C@@H](O)[C@@H](O[C@H]6[C@H](O)[C@@H](O)[C@@H](O[C@H]7[C@H](O)[C@@H](O)[C@@H](O[C@H]8[C@H](O)[C@@H](O)[C@@H](O[C@H]1[C@H](O)[C@H]2O)O[C@@H]8COCC(C)O)O[C@@H]7COCC(C)O)O[C@@H]6COCC(C)O)O[C@@H]5COCC(C)O)O[C@@H]4COCC(C)O)O[C@@H]3COCC(C)O` (stereo partly drawn) [HPBCD, hydroxypropyl-beta-cyclodextrin], for which, in data set [6], the “Maximum reported safe daily dose” value is on record as 16 g/day.
